Consider 1 molecule from patent US7696408B2, “Method to enhance Agrobacterium-mediated transformation of plants” (Regents of the University of Minnesota, priority 1999, dated 2010).

The structures appear in SMILES notation.

The test system of test [1] is soybean cot-node explants. The test is described as follows: De novo shoot production on explants at four weeks on shoot induction media. The note with it: for explants producing de novo shoots at four weeks: Experiment #1, Bert; for de novo shoot growth: Experiment #2, MN1301; for explants developing de novo shoots: Experiment #3, MN0901. Format: cell-based, Glycine max. From the text:
The explants were removed from the chamber after 14 days and transferred to fresh shoot induction media containing herbicide selection. During the transfer, the hypocotyl was carefully removed from the developing shoot mass and imbedded into the media with the differentiating tissue flush with the media surface. The plates were placed back into the growth chamber for an additional 2 weeks. At the 4 week time point, explants without de novo shoot production were discarded. The cotyledons were then removed from the differentiating tissue by cutting at the base of the node and the callus trimmed before transferring into shoot elongation media containing MS salts (murashige and Skoog, 1962), MSIII iron stock, 3% sucrose, 3 mM MES, 0.8% agar, and filter sterilized B5 vitamins, 50 mg/l asparagine, 100 mg/l pyroglutamic acid, 1 mg/l zeatin riboside, 0.1 mg/l indole-acetic acid, 0.5 mg/l GA3, 100 mg/l cefotaxime, 500 mg/l ticarcillin, 1.3-5 mg/l PPT; pH 5.6). Also at this time, a percentage of the explants were sliced into about 10 sections and stained for both GUS positive sectors and GUS positive shoots. Every 2 weeks the explants were transferred into new shoot elongation media after removing dead plant tissue and the bottom of the explant cut to encourage shoot elongation of transformed shoots.
Five levels of cysteine were tested: 0 mg/l, 100 mg/l, 200 mg/l, 300 mg/l, and 400 mg/l. Cysteine was incorporated into the solid co-culture media by preparing the media as described hereinabove and dissolving the L-cysteine into the filter sterilized components. For these three experiments, no cysteine was added into the liquid co-cultivation media. To reduce experimental error, explants were placed randomly on all five different treatments and all plates within a treatment were shuffled after completion of the experiment. After co-cultivation, the explants in each treatment were placed on shoot induction media with ½ the concentration of cysteine as in the co-cultivation media. The specific details for each experiment are as follows: • 1. Experiment #1 used the Minnesota genotype Bert and Agrobacterium strain AGL1 containing the BSF16 binary plasmid. A total of 276 explants were wounded and infected with Agrobacterium. After co-cultivation, 10 explants of each treatment were immersed into GUS stain and assayed for transient expression and the remaining explants were washed and transferred to shoot induction media containing 1.33 mg/l PPT for all four weeks. De novo shoots were produced on 74% of the treatments containing 0 mg/l cysteine, 57% on 100 mg/l, 63% on 200 mg/l, 70% on 300 mg/l, and 77% on 400 mg/l at four weeks. […] Experiment #2 used the Minnesota genotype MN1301 and Agrobacterium strain AGL1 containing the BSF16 binary plasmid. A total of 229 explants were dissected, cut, and inoculated. For each cysteine-treatment, half of the explants were incubated during co-cultivation at 21-22° C. and the other half at 25° C. Five explants of each cysteine/temperature treatment were sacrificed to GUS stain and the remaining transferred to fresh shoot induction media containing 1.33 mg/l PPT for 2 weeks. The herbicide level was raised to 3.33 mg/l PPT for the second 2 weeks on shoot induction media. Because of poor de novo shoot growth (35% on 0 mg/l cysteine, 22.8% on 100 mg/l, 32% on 200 mg/l, 42% on 300 mg/l, and 28% on 400 mg/l) and contamination, all explants were sacrificed to GUS stain at the 4 week time point. • 3. Experiment #3 used the Minnesota genotype MN0901 and Agrobacterium strain AGL1 containing the BSF16 binary plasmid. Seedlings were germinated as usual, however, one half of the plates were placed at 4° C. for 24 hours before inoculation. A total of 390 explants were wounded and inoculated. For each cysteine/seedling-temperature treatment, one half of the explants were incubated during co-cultivation at 21-22° C. and the other half at 25° C. […]

Test [2] relates to Japonica rice meristem cultures. The settings on record: individually or in combination; Enríguez-Obregón et al., 1999; cited from earlier work.
For a further test, the system named is soybean. Kind of test: Production of transgenic soybean plants. Set-up: species or system Glycine max. The settings on record: cysteine 400-1000 mg/l.

Consider `N[C@@H](CS)C(=O)O` [L-cysteine], for which the “explants producing de novo shoots at four weeks” value is listed as 57% in test [1] (100 mg/l cysteine, control 74%); 63% in test [1] (200 mg/l cysteine); 70% in test [1] (300 mg/l cysteine); 77% in test [1] (400 mg/l cysteine). In addition, the “de novo shoot growth” value in test [1] (100 mg/l cysteine, control 35%) is 22.8%; in test [1] (200 mg/l cysteine) it was 32%; in test [1] (300 mg/l cysteine), 42%; in test [1] (400 mg/l cysteine) it was 28%. Besides, the “explants developing de novo shoots” value in test [1] (100 mg/l cysteine, control 64%) stood at 53%; in test [1] (200 mg/l cysteine), 54%; in test [1] (300 mg/l cysteine), 53%; in test [1] (400 mg/l cysteine), 61%. Moreover, the “damage and viability of Japonica rice meristem cultures” value in test [2] is “decreased damage and increased viability”. For the same molecule, the “increase in production of transgenic plants” value in the test on soybean is 2 fold.
